According to ChEMBL document CHEMBL6134857, “Novel Spiro-Barbiturates Can Reverse the Action of General Anesthetics on the GABAAR” (J Med Chem, 2025):
Active and inactive are the calls of the source. No cut-off for these calls is given here.

Key:
Assay type in all cases: cell membranes
[1] = molecular target: T1, GABA-A receptor; alpha-1/beta-3/gamma-2 (Homo sapiens) (UniProt P14867+P18507+P28472); experiment: (§1) Inhibition of R-mTFD-MPAB-induced [3H]muscimol binding to full length human N-terminal flag-tagged alpha1-beta3-C-terminal 1D4-tagged gamma2 GABAA receptor extracted from Tetracycline-resistant HEK293 cell membrane at 300 uM incubated for 30 mins relative to control
[2] = molecular target: T1, GABA-A receptor; alpha-1/beta-3/gamma-2 (Homo sapiens); experiment: Effect on [3H]muscimol binding to full length human N-terminal flag-tagged alpha1-beta3-C-terminal 1D4-tagged gamma2 GABAA receptor extracted from Tetracycline-resistant HEK293 cell membrane assessed as [3H]muscimol binding at 300 uM incubated for 30 mins relative to control
[3] = molecular target: T1, GABA-A receptor; alpha-1/beta-3/gamma-2 (Homo sapiens); experiment: Inhibition of R-mTFD-MPAB-induced [3H]muscimol binding to full length human N-terminal flag-tagged alpha1-beta3-C-terminal 1D4-tagged gamma2 GABAA receptor extracted from Tetracycline-resistant HEK293 cell membrane assessed as fold change at 300 uM incubated for 30 mins; settings: filed as modulator
[4] = molecular target: T1, GABA-A receptor; alpha-1/beta-3/gamma-2 (Homo sapiens); experiment: Effect on [3H]muscimol binding to full length human N-terminal flag-tagged alpha1-beta3-C-terminal 1D4-tagged gamma2 GABAA receptor extracted from Tetracycline-resistant HEK293 cell membrane assessed as fold change in [3H]muscimol binding at 300 uM incubated for 30 mins; settings: filed as modulator
[5] = molecular target: T1, GABA-A receptor; alpha-1/beta-3/gamma-2 (Homo sapiens); experiment: as §1, with “[3H]flunitrazepam” for “R-mTFD-MPAB-induced [3H]muscimol”, “membrane assessed as reduction in [3H]flunitrazepam binding” for “membrane”
[6] = molecular target: T1, GABA-A receptor; alpha-1/beta-3/gamma-2 (Homo sapiens); experiment: Modulation of [3H]flunitrazepam binding to full length human N-terminal flag-tagged alpha1-beta3-C-terminal 1D4-tagged gamma2 GABAA receptor extracted from Tetracycline-resistant HEK293 cell membrane assessed as fold change in [3H]flunitrazepam binding at 300 uM incubated for 30 mins; settings: filed as modulator

Compound	inhibition [1]	Activity [2]	fold change (FC) [3]	fold change (FC) [4]	inhibition [5]	fold change (FC) [6]	Activity ([2]; filed as modulator)
COc1ccc2c(c1)C1(CC2)C(=O)NC(=S)NC1=O	> 40%	< 10%	1.04	0.2			
Cc1ccc2c(c1)C1(CC2)C(=O)NC(=O)NC1=O	> 40%	< 10%	0.87	0.06			
N=C1NC(=O)C2(CCc3ccc(F)cc32)C(=O)N1 (stereo unspecified)	> 40%	< 10%	0.58	-0.02			
N=C1NC(=O)C2(CCc3ccc(Cl)cc32)C(=O)N1 (stereo unspecified)	> 40%	< 10%	0.53	0.02			
NN=C1NC(=O)C2(CCc3ccccc32)C(=O)N1 (stereo unspecified)			0.66	-0.02			
CN1C(=O)NC(=O)C2(CCCCc3ccccc32)C1=O (stereo in doubt; 3h-1)			0.93	0.32			
CN1C(=O)NC(=O)[C@@]2(CCc3ccccc32)C1=O			0.78	0.08	12%	0.56	
CCCN1C(=O)NC(=O)C2(CCc3ccccc32)C1=O (stereo in doubt; 1j-1)			0.95	0.31			
O=C1NC(=O)C2(CCCCc3ccccc32)C(=O)N1			0.98	0.22	12%	0.43	
CCN1C(=O)NC(=O)C2(CCc3ccccc32)C1=O (stereo in doubt; 1i-1)			0.86	0.05			
CCN1C(=O)NC(=O)C2(CCc3ccccc32)C1=O (stereo in doubt; 1i-2)			0.86	0.11			
O=C1NC(=O)C2(CCCc3ccccc32)C(=O)N1			0.97	0.08	12%	0.45	
CN1C(=O)NC(=O)C2(CCCc3ccccc32)C1=O (stereo in doubt; 2h-1)			0.9	0.13			
CCC1(c2ccccc2)C(=O)NC(=O)NC1=O	12%		0.88	0.43			43%
CN1C(=O)NC(=O)C2(CCc3ccc(Br)cc32)C1=O (stereo in doubt; 6h-1)			0.99	0.4	12%	0.65	
Cc1ccc2c(c1)C1(CC2)C(=O)NC(=O)N(C)C1=O (stereo in doubt; 4h-2)			0.54	0.37	12%	0.72	
O=C1NC(=O)C2(CCc3ccc(Cl)cc32)C(=O)N1	> 40%	< 10%	0.88	0.15			
CN1C(=O)NC(=O)C2(CCCCc3ccccc32)C1=O (stereo in doubt; 3h-2)			0.98	0.1			
COc1ccc2c(c1)C1(CC2)C(=O)NC(=O)N(C)C1=O (stereo in doubt; 7h-1)			1.06	0.36	45%	0.55	
Cc1ccc2c(c1)C1(CC2)C(=O)NC(=N)NC1=O (stereo unspecified)	> 40%	< 10%	0.36	-0.09			
Cc1ccc2c(c1)C1(CC2)C(=O)NC(=S)NC1=O	> 40%	< 10%	0.94	0.02			
N#CSC1CC2(C(=O)NC(=O)NC2=O)c2ccccc21 (stereo in doubt; 1y-2)			0.67	0.3			
CC1CC2(C(=O)NC(=O)NC2=O)c2ccccc21 (stereo in doubt; 11g-1)			0.96	0.06			

Compound	inhibition [1]	Activity [2]	fold change (FC) [3]	fold change (FC) [4]	inhibition [5]	fold change (FC) [6]	Activity ([2]; filed as modulator)
O=C1NC(=S)NC(=O)C12CCc1ccc(Br)cc12	> 40%	< 10%	0.74	0.43			
CC1CC2(C(=O)NC(=O)NC2=O)c2ccccc21 (stereo in doubt; 11g-2)			0.99	0.15			
CCCN1C(=O)NC(=O)C2(CCc3ccccc32)C1=O (stereo in doubt; 1j-2)			0.95	0.05			
CC1Cc2ccccc2C12C(=O)NC(=O)NC2=O (stereo in doubt; 10g-1)			0.9	0.06			
CC1Cc2ccccc2C12C(=O)NC(=O)NC2=O (stereo in doubt; 10g-2)			0.95	0.13			
CN1C(=O)N(C)C(=O)C2(CCc3ccccc32)C1=O			0.98	0.07			
O=C1NC(=O)C2(CC(O)c3ccccc32)C(=O)N1 (stereo in doubt; 1t-1)			0.98	0			
COc1ccc2c(c1)C1(CC2)C(=O)NC(=O)NC1=O	> 40%	< 10%	0.69	0			
O=C1NC(=O)C2(CC(O)c3ccccc32)C(=O)N1 (stereo in doubt; 1t-2)	45%	inactive	0.55	0.02			
O=C1NC(=NO)NC(=O)C12CCc1ccccc12 (stereo unspecified)			0.66	0.07			
COc1ccc2c(c1)C1(CC2)C(=O)NC(=O)N(C)C1=O (stereo in doubt; 7h-2)			0.73	0.37	12%	0.88	
CN1C(=O)NC(=O)[C@]2(CCc3ccccc32)C1=O			0.67	0.16	12%	0.67	
NC1CC2(C(=O)NC(=O)NC2=O)c2ccccc21 (racemic)	19%	inactive	0.81	0.1			
CC(C)c1ccc2c(c1)C1(CC2)C(=O)NC(=O)N(C)C1=O (stereo in doubt; 5h-2)			0.97	0.14	12%	0.59	
CC(C)c1ccc2c(c1)C1(CC2)C(=O)NC(=S)NC1=O	> 40%	< 10%	0.87	0.54			
CN1C(=O)NC(=O)C2(CCc3ccc(Br)cc32)C1=O (stereo in doubt; 6h-2)			1.09	0.35	12%	0.61	
O=C1NC(=S)NC(=O)C12CCc1ccccc12			0.78	0.02			
Cc1ccc2c(c1)C1(CC2)C(=O)NC(=O)N(C)C1=O (stereo in doubt; 4h-1)			0.88	0.15	12%	0.76	
N#CSC1CC2(C(=O)NC(=O)NC2=O)c2ccccc21 (stereo in doubt; 1y-1)			0.61	0.2			
O=C1NC(=O)C2(CCc3ccc(F)cc32)C(=O)N1	> 40%	< 10%	0.73	0.07			
O=C1NC(=O)C2(CCc3ccc(Br)cc32)C(=O)N1	> 40%	< 10%	0.9	0.05			
CN1C(=O)NC(=O)C2(CCCc3ccccc32)C1=O (stereo in doubt; 2h-2)			0.8	-0.01			
N=C1NC(=O)C2(CCc3ccc(Br)cc32)C(=O)N1 (stereo unspecified)	> 40%	< 10%	0.53	0.03			
